Measured values as given in patent publication US8962637B2, “Bicyclic compounds and their uses as dual c-SRC/JAK inhibitors” (Debiopharm S.A., priority 2010, dated 2015).

Tests used:
[1] = biological target: c-Src (Homo sapiens (Human), UniProt P12931); assay: TR-FRET c-Src kinase assay; format: biochemical; details: ATP 50 μM; for inhibition at 0.1 µM: read-out: c-SRC % inhibition at 100 nM, 100 nM; for inhibition at 1 µM: read-out: c-SRC % inhibition at 1 μM
Protocol: (§1) Compounds were screened in the TR-FRET assay for JAK2 and c-Src kinase inhibition. Ultra light poly GT (Perkin Elmer) was used as the substrate for JAK2 and c-Src with the ATP concentration of 10 μM and 50 μM, respectively. […] The dose-response curve fitting was done using GraphPad Prism software.

[2] = tested on: A549 cells; assay: Cell viability assay (XTT assay), A549; format: cell-based; details: Homo sapiens, 72 hrs
Protocol: Next day compounds were added to cells and incubated for 72 hrs. Compound treatment was done in triplicates. After 72 hrs cell culture media was aspirated from the wells and XTT working solution was added and plates were incubated for 2-5 hrs. […] EC50 values were calculated using Graphpad Prism. Tumor cell lines used in the examples of the present invention were procured from ATCC. Description of the cell lines is included in the following table: […]

[3] = tested on: pStat3; assay: In-Cell-Western blot assay for pStat3 (ICW) in A431 cells; format: cell-based; details: Homo sapiens, A-431, 2 hrs, read-out: pSTAT3 inhibition
Procedure, shortened: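 Serum-starved (overnight) A431 cells treated with compound for 2 hrs, then fixed, permeabilized and probed with phospho-Stat3 antibody plus europium-labelled secondary. Europium signal normalized to Hoechst for cell number; IC50 calculated from normalized values.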

[4] = tested on: A431 cancer cell line; assay: Inhibition of cell growth in A431; format: cell-based; details: Homo sapiens, A-431
[5] = tested on: Mda-Mb-231 cells; assay: Cell viability assay (XTT assay), Mda-Mb-231; format: cell-based; details: Homo sapiens, 72 hrs
Procedure, shortened: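 MDA-MB-231 cells seeded and dosed next day in triplicate, incubated 72 h. Medium replaced with XTT working solution for 2-5 h, absorbance read at 465 nm, and EC50 values derived from the readings.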

[6] = biological target: JAK2 (Homo sapiens (Human), UniProt O60674); assay: TR-FRET JAK2 kinase assay; format: biochemical; details: ATP 10 μM; for inhibition at 0.1 µM: read-out: JAK2 % inhibition at 100 nM, 100 nM; for inhibition at 1 µM: read-out: JAK2 % inhibition at 1 μM
Protocol: as §1

[7] = Volume distribution; details: in vivo
From the text: Table 8 provides some volume distribution values of the compounds of the present invention.

[8] = biological target: JAK1 (Homo sapiens (Human), UniProt P23458); assay: JAK1 kinase inhibition; format: biochemical
[9] = tested on: A549 tumor cells; assay: A549 xenograft model; format: in vivo; details: A549 Xenograft model
Protocol: Sub-cutaneous (SC) injection of 5×10^6 A549 tumor cells on the left flank of 48 female athymic nude mice. Randomization of mice 14 days after tumor cell injection into 6 groups of 8 mice each with a mean tumor volume of 134±5 mm3.
Formulation: 20% HPC, 2% ethanol solution in PBS for the compounds No. 45, 117 and 179.
• Normal saline for Erlotinib® Dosing route: Oral for the compounds No. 45, 117 and 179, and Erlotinib® Dose Volume: 10 mL/Kg body weight Dosing schedule: Once daily for 14 consecutive days (Q1Dx14) Dosage: • Group1. Vehicle control • Group2. Erlotinib®-100 MPK • Group3. Compound No. 45—10 MPK • Group4. Compound No. 45—30 MPK • Group5. Compound No. 45—100 MPK • Group6. Compound No. 117—30 MPK • Group7. Compound No. 117—100 MPK • Group8. Compound No. 179—10 MPK • Group9. […] Plasma collected for drug concentration estimation and whole blood was collected to isolate PBMCs (peripheral blood monocytes) to determine pStat3 inhibition by flow cytometry as PD readout. Tumors were snap frozen in liquid nitrogen and stored at −80° C. to estimate pStat3 by flow cytometry as PD readout EXPT. 2
SC injection of 5×10^6 A549 tumor cells on the left flank of 24 female athymic nude mice. Randomization of mice 14 days after tumor cell injection into 3 groups of 8 mice each with a mean tumor volume of 75±7 mm3.
Formulation: 20% HPC, 2% ethanol solution in PBS for the compound No. 45
• Normal saline for Erlotinib® Dosing route: Oral for compound No. 45 and Erlotinib® Dose Volume: 10 mL/Kg body weight Dosing schedule: Once daily for 14 consecutive days (Q1Dx14) Dosage: • Group1. Vehicle control • Group2. Compound No. 45—150 MPK • Group3. […] Plasma collected for drug concentration estimation and whole blood was collected to isolate PBMCs to determine pStat3 inhibition by flow cytometry as PD readout. Tumors were snap frozen in liquid nitrogen and stored at −80° C. to estimate pStat3 by flow cytometry as PD readout Results: […]

[10] = tested on: pStat3; assay: Quantification of pStat3 in tumors by flow cytometry; format: in vivo, mice; details: A549 Xenograft model
Protocol: (§2) Measured pStat3 using FACS caliber machine (BD). Unstained PBMCs was used for cytometry settings. […] Histograms (cell number V/s FL1-H) were plotted. Percentage of cells that are phosphorylated by IL6 stimulation (M2 population), and inhibition of phosphorylation by inhibitor (decrease in M2 population) are calculated on histogram by marking peaks, M1 and M2.
Separate the tumour & 200 mg of tumour was crashed (45 mg per ml) by using IKA 10 at Speed #4 for 10 seconds. Sieve the tumour extract through 100 u, centrifuge at 900 g for 10 min. Re-suspend cells briefly in 0.5-1 ml PBS. Add formaldehyde to a final concentration of 2-4% formaldehyde. Fix for 10 minutes at 37° C. Chill tubes on ice for 1 minute.
Permeabilize cells by adding ice-cold 100% methanol slowly to pre-chilled cells, while gently vortexing, to a final concentration of 90% methanol. Alternatively, to remove fix prior to permeabilization, pellet cells by centrifugation and re-suspend in 90% methanol. Incubate 30 minutes on ice. Proceed with staining or store cells at −20° C. in 90% methanol. Aliquot 0.5-1×10^6 cells into each assay tube (by volume). Add 2-3 ml Incubation Buffer to each tube and rinse by centrifugation. Repeat. Re-suspend cells in 100 μl Incubation Buffer per assay tube. Analyze by flow cytometry like PBMCs.

[11] = tested on: pStat3; assay: Quantification of pStat3 in PBMCs by flow cytometry; format: in vivo, mice; details: A549 Xenograft model
Protocol: Phosphorylation of Stat3 was stimulated by addition of hIL6 (10 ug/mL) for 30 min at 37° C. Blood was fixed with formaldehyde (final 2% v/v) for 10 min at 37° C.
Buffy coat (PBMCs) was separated by aspirating translucent layer using pipetteman and washed twice with PBS-1×
Pre chilled PBMC's were permeabilized by adding ice cold Methanol, while vortexing gently (final volume 90% MeOH v/v) and incubated for 30 min on ice.
Permeabilized PBMCs were washed with PBS once. PBMCs re-suspended to 2×10^6 cells in 200 μL of incubation buffer for 10 min at room temperature (RT). Primary Ab was added (1:100 dilution) and incubated 45 min at RT. Washed as before (twice) and re-suspended in fluorochrome conjugated secondary Ab (1:500 dilution) and incubated at RT in dark for 30 min. Washed and re-suspended in […] PBS.
as §2

Sequence of c-Src (P12931 whole entry, looked up): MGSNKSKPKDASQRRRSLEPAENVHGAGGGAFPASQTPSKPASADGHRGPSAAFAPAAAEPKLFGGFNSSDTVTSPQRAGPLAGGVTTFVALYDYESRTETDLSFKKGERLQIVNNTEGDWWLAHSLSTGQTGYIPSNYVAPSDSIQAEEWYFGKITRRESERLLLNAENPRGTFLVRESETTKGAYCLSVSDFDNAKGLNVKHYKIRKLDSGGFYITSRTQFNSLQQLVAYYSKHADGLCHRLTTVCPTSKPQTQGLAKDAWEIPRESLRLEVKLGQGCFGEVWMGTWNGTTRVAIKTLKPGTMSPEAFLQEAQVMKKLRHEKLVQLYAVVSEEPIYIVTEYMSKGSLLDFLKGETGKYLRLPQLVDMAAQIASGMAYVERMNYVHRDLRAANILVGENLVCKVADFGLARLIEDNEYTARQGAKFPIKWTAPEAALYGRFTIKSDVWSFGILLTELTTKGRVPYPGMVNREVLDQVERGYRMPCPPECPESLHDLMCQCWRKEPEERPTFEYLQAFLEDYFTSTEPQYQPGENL
Sequence of JAK2 (O60674 whole entry): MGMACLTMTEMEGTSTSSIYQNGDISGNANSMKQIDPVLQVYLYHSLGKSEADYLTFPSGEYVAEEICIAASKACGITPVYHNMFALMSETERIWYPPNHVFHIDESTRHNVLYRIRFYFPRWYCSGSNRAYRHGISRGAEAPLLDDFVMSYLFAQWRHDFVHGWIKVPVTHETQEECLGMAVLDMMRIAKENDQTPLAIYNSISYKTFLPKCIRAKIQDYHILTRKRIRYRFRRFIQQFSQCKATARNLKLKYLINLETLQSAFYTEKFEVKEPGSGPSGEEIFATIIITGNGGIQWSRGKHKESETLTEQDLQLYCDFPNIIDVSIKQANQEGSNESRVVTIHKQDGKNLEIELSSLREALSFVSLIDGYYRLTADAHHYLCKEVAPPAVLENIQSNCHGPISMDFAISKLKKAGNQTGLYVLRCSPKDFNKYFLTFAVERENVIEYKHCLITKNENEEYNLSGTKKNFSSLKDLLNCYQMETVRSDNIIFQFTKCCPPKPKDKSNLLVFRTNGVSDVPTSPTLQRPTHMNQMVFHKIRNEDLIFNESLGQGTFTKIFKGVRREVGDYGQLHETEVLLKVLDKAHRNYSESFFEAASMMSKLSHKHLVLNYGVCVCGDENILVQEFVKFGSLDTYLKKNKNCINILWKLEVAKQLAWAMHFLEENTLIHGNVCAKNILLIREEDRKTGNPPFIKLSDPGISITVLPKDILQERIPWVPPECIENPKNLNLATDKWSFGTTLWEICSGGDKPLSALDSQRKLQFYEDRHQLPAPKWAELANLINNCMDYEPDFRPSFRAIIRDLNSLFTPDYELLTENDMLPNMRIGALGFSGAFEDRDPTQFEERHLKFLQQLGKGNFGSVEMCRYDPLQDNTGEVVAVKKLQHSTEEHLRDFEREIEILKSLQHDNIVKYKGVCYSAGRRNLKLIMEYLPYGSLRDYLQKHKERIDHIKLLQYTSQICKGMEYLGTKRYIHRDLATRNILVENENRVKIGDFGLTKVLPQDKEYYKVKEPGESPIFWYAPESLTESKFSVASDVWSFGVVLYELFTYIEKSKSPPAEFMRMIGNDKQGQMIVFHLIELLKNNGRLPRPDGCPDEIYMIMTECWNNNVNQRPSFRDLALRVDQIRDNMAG
Sequence of JAK1 (P23458 whole entry): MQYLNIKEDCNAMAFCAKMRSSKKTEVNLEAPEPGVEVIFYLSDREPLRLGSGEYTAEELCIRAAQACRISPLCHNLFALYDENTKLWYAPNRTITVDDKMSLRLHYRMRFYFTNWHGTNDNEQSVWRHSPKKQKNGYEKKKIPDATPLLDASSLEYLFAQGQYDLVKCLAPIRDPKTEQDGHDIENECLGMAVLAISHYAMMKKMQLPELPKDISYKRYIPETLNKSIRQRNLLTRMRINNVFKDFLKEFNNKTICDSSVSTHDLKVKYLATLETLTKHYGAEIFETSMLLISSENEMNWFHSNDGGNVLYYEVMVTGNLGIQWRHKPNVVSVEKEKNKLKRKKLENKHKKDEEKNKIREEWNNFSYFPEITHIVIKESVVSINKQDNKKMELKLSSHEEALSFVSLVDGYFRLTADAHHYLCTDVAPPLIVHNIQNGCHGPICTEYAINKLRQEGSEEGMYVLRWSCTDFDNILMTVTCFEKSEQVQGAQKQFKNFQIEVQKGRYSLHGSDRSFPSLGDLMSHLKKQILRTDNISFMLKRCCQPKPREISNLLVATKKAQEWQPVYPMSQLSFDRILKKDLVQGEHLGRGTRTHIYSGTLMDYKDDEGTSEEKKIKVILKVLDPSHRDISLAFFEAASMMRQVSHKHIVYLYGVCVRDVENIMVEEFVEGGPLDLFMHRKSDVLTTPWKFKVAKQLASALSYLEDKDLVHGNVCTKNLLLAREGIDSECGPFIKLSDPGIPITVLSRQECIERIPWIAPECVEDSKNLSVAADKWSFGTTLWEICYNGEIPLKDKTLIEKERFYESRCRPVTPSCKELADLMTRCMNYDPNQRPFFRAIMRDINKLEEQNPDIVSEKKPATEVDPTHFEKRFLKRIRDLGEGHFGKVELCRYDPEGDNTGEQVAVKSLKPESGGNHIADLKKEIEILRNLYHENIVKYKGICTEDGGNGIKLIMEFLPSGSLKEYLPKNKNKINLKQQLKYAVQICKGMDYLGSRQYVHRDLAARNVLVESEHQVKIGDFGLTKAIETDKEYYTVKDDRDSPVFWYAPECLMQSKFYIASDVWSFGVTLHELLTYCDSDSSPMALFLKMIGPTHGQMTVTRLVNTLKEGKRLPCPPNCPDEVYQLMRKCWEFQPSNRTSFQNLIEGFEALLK

Row | IC50 [1] | EC50 [2] | IC50 [3] | EC50 [4] | EC50 [5] | IC50 [6] | inhibition at 0.1 µM [1] | inhibition at 1 µM [1] | Vd [7] | SMILES | other results
1 | 16 nM | 3400 nM | 450 nM | 1450 nM | 3600 nM | 83 nM | – | – | – | Cc1ccc(NC(=O)c2cccc(C(F)(F)F)c2)cc1N1CCc2nc(Nc3ccc(OCCN4CCCC4)cc3)ncc2C1=O [Compound 7, N-(4-Methyl-3-{5-oxo-2-[4-(2-pyrrolidin-1-yl-ethoxy)-phenylamino]-7,8-dihydro-5H-pyrido[4,3-d]pyrimidin-6-yl}-phenyl)-3-trifluoromethyl-benzamide] | –
2 | – | 78 nM | 580 nM | 570 nM | 530 nM | – | – | – | – | Cc1ccc(NC(=O)c2cccc(C(C)(C)C)c2)cc1N1CCc2nc(Nc3ccc(N4CCN(C)CC4)cc3)ncc2C1=O [Compound 86] | –
3 | – | – | – | – | 880 nM | – | 74% | 90% | 7.14 L/kg | Cc1ccc(NC(=O)CCC(F)(F)F)cc1N1CCc2nc(Nc3ccc(N4CCN(C)CC4)cc3)ncc2C1 [Compound 131, 4,4,4-Trifluoro-N-(4-methyl-3-{2-[4-(4-methyl-piperazin-1-yl)-phenylamino]-7,8-dihydro-5H-pyrido[4,3-d]pyrimidin-6-yl}-phenyl)-butyramide] | –
4 | 7 nM | 426 nM | 670 nM | 670 nM | 74 nM | – | – | – | – | Cc1ccc(NC(=O)c2cccc(C(F)(F)F)c2)cc1N1CCc2nc(Nc3cccc(CN4CCN(C)CC4)c3)ncc2C1 [Compound 137, N-(4-Methyl-3-{2-[3-(4-methyl-piperazin-1-ylmethyl)-phenylamino]-7,8-dihydro-5H-pyrido[4,3-d]pyrimidin-6-yl]-phenyl)-3-trifluoromethyl-benzamide] | –
5 | – | – | – | – | 720 nM | 21 nM | 67% | 90% | 20.6 L/kg | Cc1ccc(NC(=O)CCC(F)(F)F)cc1N1CCc2nc(Nc3ccc(OCCN4CCCC4)cc3)ncc2C1 [Compound 147, 4,4,4-Trifluoro-N-(4-methyl-3-{2-[4-(2-pyrrolidin-1-yl-ethoxy)-phenylamino]-7,8-dihydro-5H-pyrido[4,3-d]pyrimidin-6-yl}-phenyl)-butyramide] | inhibition at 0.1 µM [6]: 88%; inhibition at 1 µM [6]: 93%
6 | 2 nM | – | – | – | 1200 nM | 18 nM | – | – | 11.8 L/kg | Cc1ccc(NC(=O)CC(C)C(F)(F)F)cc1N1CCc2nc(Nc3ccc(OCCN4CCCC4)cc3)ncc2C1 (stereo not shown) [Compound 155, 4,4,4-Trifluoro-3-methyl-N-(4-methyl-3-{2-[4-(2-pyrrolidin-1-yl-ethoxy)-phenylamino]-7,8-dihydro-5H-pyrido[4,3-d]pyrimidin-6-yl}-phenyl)-butyramide] | –
7 | 20 nM | 2100 nM | 471 nM | – | 1300 nM | 19 nM | 74% | 87% | 0.794 L/kg | Cc1cc(Nc2ncc3c(n2)CCN(c2cc(NC(=O)c4cccc(C(F)(F)F)c4)ccc2Cl)C3=O)ccc1N1CCN(C)CC1 [Compound 171, N-(4-Chloro-3-{2-[3-methyl-4-(4-methyl-piperazin-1-yl)-phenylamino]-5-oxo-7,8-dihydro-5H-pyrido[4,3-d]pyrimidin-6-yl}-phenyl)-3-trifluoromethyl-benzamide] | distribution volume (in words) [7]: weak volume of distribution; inhibition at 0.1 µM ([8]; read-out: JAK1 % inhibition at 100 nM): 61%; inhibition at 1 µM ([8]; read-out: JAK1 % inhibition at 1 μM): 84%; inhibition at 0.1 µM [6]: 92%; inhibition at 1 µM [6]: 97%
8 | – | 1480 nM | 140 nM | 1070 nM | 1620 nM | – | 66% | 87% | – | Cc1ccc(NC(=O)c2cccc(C(F)(F)F)c2)cc1N1CCc2nc(Nc3ccc(OCCCN4CCN(C)CC4)cc3)ncc2C1=O [Compound 180, N-[4-Methyl-3-(2-{4-[3-(4-methyl-piperazin-1-yl)-propoxy]-phenylamino}-5-oxo-7,8-dihydro-5H-pyrido[4,3-d]pyrimidin-6-yl)-phenyl]-3-trifluoromethyl-benzamide] | inhibition at 0.1 µM [6]: 67%; inhibition at 1 µM [6]: 91%
9 | – | – | – | – | – | – | – | – | 0.583 L/kg | O=C(COc1ccc(Nc2ncc3c(n2)CCN(c2cc(NC(=O)c4cccc(C(F)(F)F)c4)ccc2Cl)C3=O)cc1)NC1CC1 [Compound 185, N-(4-Chloro-3-[2-(4-(cyclopropylcarbamoylmethoxy)phenylamino)-5-oxo-7,8-dihydro-5H-pyrido[4,3-d]pyrimidin-6-yl]-phenyl}-3-trifluoromethyl-benzamide] | –
10 | – | – | – | – | – | – | – | – | – | C#Cc1cccc(Nc2ncnc3cc(OCCOC)c(OCCOC)cc23)c1 [Erlotinib, reference compound] | % TGI (Tumor Growth Inhibition) ([9]; 100 MPK): 59.55%; Tumors % pStat3 inhibition ([10]; 100 MPK): 28.14%; PBMCs % pStat3 inhibition ([11]; 100 MPK): 44.43%
11 | – | – | – | – | – | – | – | – | – | CCC1=C[C@@H]2CN(C1)Cc1c([nH]c3ccccc13)[C@@](C(=O)OC)(c1cc3c(cc1OC)N(C)[C@H]1[C@@](O)(C(=O)OC)[C@H](OC(C)=O)[C@]4(CC)C=CCN5CC[C@]31[C@@H]54)C2 [Vinorelbine, reference compound] | % TGI (Tumor Growth Inhibition) ([9]; 8 MPK): 51.89%; Tumors % pStat3 inhibition ([10]; 8 MPK): 25.2%; PBMCs % pStat3 inhibition ([11]; 8 MPK): 28.8%
